The record followed here is patent US20090137601A1, “L-Phenylalanine Derivatives” (ASTRAZENECA AB, priority 2005, published 2009).

The assay deals with T1, α5β1 integrin (Homo sapiens, UniProt P05556+P08648).
T1 construct: α5β1 integrin mediated adhesion of K562 cells; host or cells: K562 human erythroleukaemia cells (integrin, endogenous); E. coli (Fn9-10 ligand, made in house)
In words: In vitro cell adhesion assay: α5β1 integrin mediated adhesion of K562 cells to fibronectin fragment Fn9-10. In kind it is cell-based. Conditions: human K562 erythroleukaemia cells; Fn9-10 coated plates; 0.2 mM MnCl; 45 minutes at 37° C.; crystal violet absorbance at 590 nm. From the text:
The assay determined the ability of compounds to inhibit the α5β1 integrin mediated adhesion of K562 cells to the ligand, a fragment of human fibronectin. The human K562 erythroleukaemia cell line (LGC Promochem, Teddington, Middlesex, UK, Catalogue No. CCL-243) was routinely maintained in RPMI 1640 medium (Sigma-Aldrich Company Ltd, Gillingham, Dorset SP8 4XT, Catalogue No. R0883) containing 10% heat-inactivated foetal calf serum (PAA lab GmbH, Pasching, Austria Catalogue No. PAA-A15-043) and 1% glutamax-1 (Invitrogen Ltd. Paisley, UK Catalogue No. 35050-038) at 37° C. with 5% CO2 at densities between 1×10^5 and 1×10^6 cells/ml.
A DNA fragment encoding the domains 9-10 (amino-acids 1325-1509) of human fibronectin (Swiss-Prot Accession No. P02751) was isolated from cDNA libraries using standard molecular biology and PCR cloning techniques. The cDNA fragment was sub-cloned into a pT7#3.3 expression vector containing a GST-epitope tag (developed at AstraZeneca; Bagnall et al., Protein Expression and Purification, 2003, 27: 1-11), and the fragment termed Fn9-10. Following expression in E. coli, the expressed protein was purified using the GST-tag using standard purification techniques.
For adhesion assay, a 96-well flat bottomed plate (Greiner Bio one ltd., Gloucester GL10 3SX Catalogue No. 655101) was coated overnight at 4° C. with 100 μl of 20 μg/ml Fn9-10 ligand in Dulbecco's PBS (Gibco #14190-94). The plate was then washed twice with 200 μl of PBS and blocked with 100 μl of 3% BSA (SigmaA7888) in PBS for 1 hour at 37° C. The plates were then washed again 3 times with 200 μl of PBS and left empty. […]
After fixation, the ethanol was flicked off to waste and 100 μl of 0.1% Crystal violet stain was added to each well, and incubated at ambient temperature for 15 minutes. […] Finally, 100 μl of deionised water was added to each well and the absorbance was determined at 590 nm on a spectrophotometer. The minimum value was subtracted from all values, and the absorbance signal was plotted against compound concentration to generate IC50 data.

As a reminder, the pIC50 is the IC50 on a negative log10 scale, so that one unit is a factor of ten.

pIC50: −log10 of the molar value.

T1 sequence (P08648 42-894 limits assumed): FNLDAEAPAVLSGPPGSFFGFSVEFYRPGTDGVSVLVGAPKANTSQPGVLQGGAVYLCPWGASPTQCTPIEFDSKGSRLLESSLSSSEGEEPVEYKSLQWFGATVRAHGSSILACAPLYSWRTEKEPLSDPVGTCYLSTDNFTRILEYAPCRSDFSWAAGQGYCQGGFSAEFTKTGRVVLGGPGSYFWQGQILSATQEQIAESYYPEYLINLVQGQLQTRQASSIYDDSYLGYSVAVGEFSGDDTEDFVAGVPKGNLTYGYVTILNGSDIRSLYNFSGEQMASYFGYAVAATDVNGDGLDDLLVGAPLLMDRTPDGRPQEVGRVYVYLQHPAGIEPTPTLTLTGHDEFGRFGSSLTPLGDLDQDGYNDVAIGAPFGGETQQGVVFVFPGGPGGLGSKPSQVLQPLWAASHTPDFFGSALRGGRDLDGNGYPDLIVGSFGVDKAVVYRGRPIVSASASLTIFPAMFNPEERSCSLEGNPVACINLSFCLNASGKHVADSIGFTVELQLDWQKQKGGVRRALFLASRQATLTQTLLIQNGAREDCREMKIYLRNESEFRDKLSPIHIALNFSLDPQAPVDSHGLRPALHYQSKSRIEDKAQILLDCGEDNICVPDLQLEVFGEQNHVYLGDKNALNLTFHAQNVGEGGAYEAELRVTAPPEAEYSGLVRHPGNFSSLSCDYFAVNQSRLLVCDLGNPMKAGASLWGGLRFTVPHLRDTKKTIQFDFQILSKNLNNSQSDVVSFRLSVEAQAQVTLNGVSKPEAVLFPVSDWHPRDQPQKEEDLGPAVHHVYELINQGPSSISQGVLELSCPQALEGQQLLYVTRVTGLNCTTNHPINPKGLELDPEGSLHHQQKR
T1 sequence (P08648 895-1049 partner limits assumed): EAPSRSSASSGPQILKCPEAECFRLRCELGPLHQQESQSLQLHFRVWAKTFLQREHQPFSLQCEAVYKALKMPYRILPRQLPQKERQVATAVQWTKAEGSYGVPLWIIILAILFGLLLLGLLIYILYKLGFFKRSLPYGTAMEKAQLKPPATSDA
T1 sequence (P05556 21-798): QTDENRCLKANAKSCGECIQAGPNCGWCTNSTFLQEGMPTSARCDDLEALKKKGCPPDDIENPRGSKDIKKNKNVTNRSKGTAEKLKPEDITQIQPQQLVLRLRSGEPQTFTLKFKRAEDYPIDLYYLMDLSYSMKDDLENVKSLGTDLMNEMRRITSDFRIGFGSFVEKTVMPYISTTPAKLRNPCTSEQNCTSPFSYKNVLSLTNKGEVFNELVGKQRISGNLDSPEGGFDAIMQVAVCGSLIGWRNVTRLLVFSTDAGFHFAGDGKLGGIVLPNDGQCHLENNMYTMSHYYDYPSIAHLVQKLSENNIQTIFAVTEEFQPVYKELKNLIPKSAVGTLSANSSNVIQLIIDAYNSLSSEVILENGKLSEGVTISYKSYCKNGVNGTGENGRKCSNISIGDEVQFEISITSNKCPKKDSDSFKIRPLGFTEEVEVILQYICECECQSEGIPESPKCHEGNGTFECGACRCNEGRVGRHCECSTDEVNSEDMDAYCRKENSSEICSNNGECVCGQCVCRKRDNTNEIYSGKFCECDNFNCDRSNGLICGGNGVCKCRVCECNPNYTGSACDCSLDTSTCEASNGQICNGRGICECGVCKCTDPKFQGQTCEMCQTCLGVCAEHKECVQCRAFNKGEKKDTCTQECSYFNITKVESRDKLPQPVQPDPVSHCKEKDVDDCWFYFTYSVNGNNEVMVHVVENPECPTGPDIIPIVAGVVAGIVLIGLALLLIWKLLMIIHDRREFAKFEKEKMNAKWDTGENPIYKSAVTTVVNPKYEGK

In turn, `O=C(N[C@@H](Cc1ccc(C2CCN(Cc3ccccc3F)CC2)cc1)C(=O)O)c1c(Cl)cccc1Cl` [N-(2,6-dichlorobenzoyl)-4-[1-(2-fluorobenzyl)piperidin-4-yl]-L-phenylalanine] had a pIC50 of at most 4.52.

As for `COc1cccc(CN2CCC(c3ccc(C[C@H](NC(=O)c4c(Cl)cccc4Cl)C(=O)O)cc3)CC2)c1` [N-(2,6-dichlorobenzoyl)-4-[1-(3-methoxybenzyl)piperidin-4-yl]-L-phenylalanine], the pIC50 was at most 4.52.

In turn, `Cc1cccc(Cl)c1C(=O)N[C@@H](Cc1ccc(C2=CCN(Cc3ccc(F)cc3)CC2)cc1)C(=O)O` [N-(2-chloro-6-methylbenzoyl)-4-[1-(4-fluorobenzyl)-1,2,3,6-tetrahydropyridin-4-yl]-L-phenylalanine] showed a pIC50 of at most 4.52.
